Reference: publication PMC6160999, “Pharmacokinetics, Tissue Distribution and Excretion of a Novel Diuretic (PU-48) in Rats” (Pharmaceutics, 2018)
“And” between values parts separate entries of the source, which are not always exact repeats. Equal values may be shown once.

Columns and labels:
[1] = Urine and feces excretion after single oral PU-48 SNEDDS; format: in vivo; settings: rat, oral PU-48 SNEDDS 12 mg/kg
[2] = design: method as in PMID 24055006, PMID 23728001, PMID 9124305, PMID 2671740; settings: cited from earlier work
[3] = Urine and feces excretion after single oral PU-48 SNEDDS; format: in vivo; settings: rat, oral PU-48 SNEDDS 12 mg/kg; remark: listed apart in the source
Description: Internal standard (IS, 25 μL) was added to 50 μL plasma, urine, or bile sample in a clean tube, placed into a water bath at 37 °C, and dried under a gentle stream of nitrogen gas, followed by the addition of 0.5 mL of ethyl acetate for liquid-liquid extraction. The mixture was shaken by a vortex mixer for 3 min, and then centrifuged at 8000 rpm (4200× g) for 10 min at 4 °C. After centrifugation, the upper organic phase was transferred into a clean centrifuge tube and then dried it again. The combined upper organic phases were evaporated to dryness at 37 °C under a gentle stream of nitrogen gas. The residue was reconstituted with 50 μL acetonitrile and then centrifuged at 13,000 rpm (12,000× g) for 10 min at 4 °C, the upper liquid was transferred into sample vials. Finally, 5 μL aliquots were injected into the LC–MS/MS system to analyze. Each tissue samples were homogenized in normal saline (0.9% NaCl, 1:3, w/v), and then centrifuged at 10,000× g for 10 min to get the supernatant. Other steps were the same as plasma sample preparation.
Feces samples were homogenized in 0.9% NaCl solution (1 g/10 mL), vortexed for 1 min and then centrifuged at 1200× g for 15 min to gather the supernatant. A volume of 25 μL of IS was added to 500 μL mixture in a clean tube, placed into a water bath at 37 °C and dried under a gentle stream of nitrogen gas, followed by the addition of 2 mL of ethyl acetate for twice liquid-liquid extraction (total 4 mL). The residue was reconstituted with 50 μL mobile phase and then 5 μL aliquots were injected into the HPLC system to analyze.
Six male rats were given single orally administration of PU-48 (12 mg/kg, 1.2 mg/mL in the SNEDDS formulation) and housed in separate stainless-steel metabolism cages. Both feces and urine samples were collected at 0–1, 1–2, 2–4, 4–6, 6–8, 8–12, 12–24, 24–48, 48–72 and 72–96 h. In a separate study, bile samples were collected 0–1, 1–2, 2–4, 4–6, 6–8, 8–12, 12–24, 24–48, 48–72 and 72–96 h after oral administration of PU-48 (12 mg/kg, 1.2 mg/mL in the SNEDDS formulation) to six bile duct-cannulated rats.

Accumulative Excretion Amount, urine ([1]; 24–36 h): 1058.2 ± 684.1 ng
Accumulative Excretion Amount, urine ([1]; 36–48 h): 1216.6 ± 716.3 ng
Accumulative Excretion Percentage, urine ([1]; 36–48 h): 0.0436 ± 0.0261%
Accumulative Excretion Amount, urine ([3]; 0–1 h): 61.2 ± 13.4 ng
Accumulative Excretion Percentage, urine ([3]; 0–1 h): 0.0022 ± 0.0005%
Excretion Amount, urine ([3]; 0–1 h): 61.2 ± 13.4 ng
PU-48 Concentration in urine ([3]; 0–1 h): 627.9 ± 94.1 ng/mL
Accumulative Excretion Amount, feces ([3]; 0–6 h): 0.1 µg
Accumulative Excretion Percentage, feces ([3]; 0–6 h): 0.0022%
Excretion Amount, feces ([3]; 0–6 h): 0.1 µg
PU-48 Concentration in feces ([3]; 0–6 h): 0.1 µg/mL
Accumulative Excretion Amount, urine ([3]; 1–2 h): 131.8 ± 37.9 ng
Accumulative Excretion Percentage, urine ([3]; 1–2 h): 0.0047 ± 0.0015%
Excretion Amount, urine ([3]; 1–2 h): 80.8 ± 41.0 ng
PU-48 Concentration in urine ([3]; 1–2 h): 376.3 ± 184.2 ng/mL
Accumulative Excretion Amount, urine ([3]; 2–4 h): 203.6 ± 48.4 ng
Accumulative Excretion Percentage, urine ([3]; 2–4 h): 0.0073 ± 0.0018%
Excretion Amount, urine ([3]; 2–4 h): 107.7 ± 30.0 ng
PU-48 Concentration in urine ([3]; 2–4 h): 97.3 ± 20.1 ng/mL
Accumulative Excretion Amount, urine ([3]; 4–6 h): 345.3 ± 107.2 ng
Accumulative Excretion Percentage, urine ([3]; 4–6 h): 0.0123 ± 0.0038%
Excretion Amount, urine ([3]; 4–6 h): 141.7 ± 78.0 ng
PU-48 Concentration in urine ([3]; 4–6 h): 156.3 ± 65.6 ng/mL
Accumulative Excretion Amount, feces ([3]; 6–8 h): 0.4 µg
Accumulative Excretion Percentage, feces ([3]; 6–8 h): 0.0128%
Excretion Amount, feces ([3]; 6–8 h): 0.4 µg
PU-48 Concentration in feces ([3]; 6–8 h): 0.4 µg/mL
Accumulative Excretion Amount, urine ([3]; 6–12 h): 496.4 ± 129.9 ng
Accumulative Excretion Percentage, urine ([3]; 6–12 h): 0.0178 ± 0.0048%
Excretion Amount, urine ([3]; 6–12 h): 151.1 ± 94.8 ng
PU-48 Concentration in urine ([3]; 6–12 h): 83.6 ± 56.6 ng/mL
Accumulative Excretion Amount, feces ([3]; 8–12 h): 12.5 ± 14.6 µg
Accumulative Excretion Percentage, feces ([3]; 8–12 h): 0.44 ± 0.51%
Excretion Amount, feces ([3]; 8–12 h): 12.5 ± 14.5 µg
PU-48 Concentration in feces ([3]; 8–12 h): 6.9 ± 6.5 µg/mL
Accumulative Excretion Amount, feces ([3]; 12–24 h): 31.5 ± 21.4 µg
Accumulative Excretion Amount, urine ([3]; 12–24 h): 850.7 ± 589.4 ng
Accumulative Excretion Percentage, feces ([3]; 12–24 h): 1.11 ± 0.73%
Accumulative Excretion Percentage, urine ([3]; 12–24 h): 0.0306 ± 0.0216%
Excretion Amount, feces ([3]; 12–24 h): 19.0 ± 11.3 µg
Excretion Amount, urine ([3]; 12–24 h): 354.3 ± 485.8 ng
PU-48 Concentration in feces ([3]; 12–24 h): 9.4 ± 5.3 µg/mL
PU-48 Concentration in urine ([3]; 12–24 h): 65.3 ± 94.6 ng/mL
Accumulative Excretion Percentage, urine ([3]; 24–36 h): 0.0380 ± 0.0250%
Excretion Amount, urine ([3]; 24–36 h): 207.5 ± 123.7 ng
PU-48 Concentration in urine ([3]; 24–36 h): 45.0 ± 36.9 ng/mL
Accumulative Excretion Amount, feces ([3]; 24–48 h): 41.0 ± 21.7 µg
Accumulative Excretion Percentage, feces ([3]; 24–48 h): 1.45 ± 0.74%
Excretion Amount, feces ([3]; 24–48 h): 9.5 ± 9.5 µg
PU-48 Concentration in feces ([3]; 24–48 h): 1.8 ± 1.9 µg/mL
Excretion Amount, urine ([3]; 36–48 h): 158.4 ± 125.3 ng
PU-48 Concentration in urine ([3]; 36–48 h): 25.6 ± 27.4 ng/mL
Accumulative Excretion Amount, feces ([3]; 48–72 h): 44.3 ± 22.1 µg
Accumulative Excretion Amount, urine ([3]; 48–72 h): 1319.8 ± 734.0 ng
Accumulative Excretion Percentage, feces ([3]; 48–72 h): 1.56 ± 0.75%
Accumulative Excretion Percentage, urine ([3]; 48–72 h): 0.0473 ± 0.0267%
Excretion Amount, feces ([3]; 48–72 h): 3.2 ± 4.4 µg
Excretion Amount, urine ([3]; 48–72 h): 103.2 ± 94.5 ng
PU-48 Concentration in feces ([3]; 48–72 h): 0.5 ± 0.7 µg/mL
PU-48 Concentration in urine ([3]; 48–72 h): 7.5 ± 5.9 ng/mL
Accumulative Excretion Amount, urine ([3]; 72-96 h (within 96 h)): 1458.5 ± 733.1 ng
Excretion Amount, urine ([3]; 72-96 h): 138.7 ± 101.2 ng
PU-48 Concentration in urine ([3]; 72-96 h): 9.0 ± 5.4 ng/mL
Accumulative Excretion Amount, feces ([3]; 72–96 h (within 96 h)): 45.5 ± 22.0 µg
Accumulative Excretion Percentage, feces ([3]; 72–96 h (within 96 h)): 1.61 ± 0.74% and 1.60%
Excretion Amount, feces ([3]; 72–96 h): 1.2 ± 1.4 µg
PU-48 Concentration in feces ([3]; 72–96 h): 0.2 ± 0.2 µg/mL
Total excretion of PU-48 parent drug in the urine, feces, and bile ([3]; within 96 h): less than 2%
Structure (SMILES): COC(=O)c1sc2nc3ccc(OC)cc3cc2c1N [PU-48, Methyl 3-amino-6-methoxythieno [2,3-b] quinoline-2-carboxylate]
Serum levels of sodium, chloride, or potassium [2]: did not change
Accumulative Excretion Percentage, urine ([3]; 72-96 h (within 96 h)): 0.0523 ± 0.0267% and 0.052 ± 0.0267% and 0.052%
